Experiments:
R28 cells [1] = test: Real time RT-PCR analysis, in vitro, R28; assay type: cell-based, rat
Experimental: A transformed Müller cell line [rMC-1] were grown in cell cultures in DMEM supplemented with 15% FBS, as well as with a fungicide mixture and 0.5% gentamicin in a humidified atmosphere of 5% CO2/95% air. Medium was changed every 2-3 days, and cells were grown to confluence in a 150-mm dish. Cells were split into 60-mm dishes and were used in the experiments when confluent. […] cells are immortalized rat retinal neurosensory/neuoroglial progenitor cells, by transfection with Adenovirus 12S E1A into the neonatal retinal tissue. […] cells express genes characteristic of neurons, as well as functional neuronal properties. […] cells were cultured in DMEM/F12 medium in a 1:1 mixture, supplemented with 5% FBS, 1.5 mM L-glutamine, 7.5 mM sodium pyruvate, 0.1 mM nonessential amino acids, 1×MEM, 0.37% sodium bicarbonate and 10 μg/ml gentamicin. Cells were incubated at 37° C. in the presence of 5% CO2. Human retinal microvascular endothelial cells [[…]][40,000 cells/well] were seeded in a 96-well plate and allowed to adhere overnight and incubated at 37° C. in normoxia. Cells were then cultured in 150 μl of CS-C medium supplemented with 10% FBS and in the presence of 1-100 μM YC-1 or DMSO [0.2%]. Cells were placed in airtight chambers [BioSpherix, Redfield, N.Y.] and the O2 tension was maintained at 1.2% by using Pro-Ox Model 110 O2 regulator [BioSpherix, Redfield, N.Y.]. The chamber was purged with a gas mixture of 5.32% CO2, and 93.48% N2. […] We used the primers summarized in [FIG. 6C] for RT-PCR. Gene-specific molecular beacons and primers were designed to encompass the genes of interest, with beacon's annealing site to overlap with the exon-exon junctions for additional specificity [Beacon Designer 6.0, Premier Biosoft International, Palo Alto, Calif., USA]. Threshold cycle [Ct] values for the different samples were utilized for the calculation of gene expression fold change using the formula 2 to the minus power of delta delta ct. Fold changes in the HIF-1, VEGF, PDGF-B, GFAP and iNOS gene relative to the β-actin endogenous control gene were determined by the following equation: fold change=2-Δ[ΔC T], where change in threshold cycle [ΔCT]=CT [gene of interest]-CT [β-actin] and Δ [ΔCT]=ΔCT [treated]-ΔCT [untreated].

ischemic retinas = test: Real time RT-PCR analysis, in vivo (OIR retinas); set-up: species or system C57BL/6J mice; details: OIR mice
From the text: mRNA levels for HIF-1, VEGF, PDGF-B, GFAP and iNOS were quantified by Real time RTPCR. We used the primers summarized in [FIG. 6C] for RT-PCR. Gene-specific molecular beacons and primers were designed to encompass the genes of interest, with beacon's annealing site to overlap with the exon-exon junctions for additional specificity [Beacon Designer 6.0, Premier Biosoft International, Palo Alto, Calif., USA]. Threshold cycle [Ct] values for the different samples were utilized for the calculation of gene expression fold change using the formula 2 to the minus power of delta delta ct. Fold changes in the HIF-1, VEGF, PDGF-B, GFAP and iNOS gene relative to the β-actin endogenous control gene were determined by the following equation: fold change=2−Δ[ΔC T], where change in threshold cycle [ΔCT]=CT [gene of interest]−CT [β-actin] and Δ [ΔCT]=ΔCT [treated]−ΔCT [untreated].
Retinal NV was induced in newborn mice as described previously. Briefly, P7 mice were exposed with their nursing mother, for 5 days [between P7 and P12] to hyperoxic conditions, by incubating them in an airtight chamber [PROOX 110 chamber O2 controller; Biospherix Ltd., Redfield, N.Y.] ventilated by a mixture of O2 and air to a final oxygen fraction of 75±2%. These incubation conditions induced vaso-obliteration and subsequent cessation of vascular development in the capillary beds of the central retina. At P12, the mice were allowed to recover in normal room air conditions and maintained for another 5 days [till P17], the day in which peak disease occurs. A condition of relative hypoxia resulted between P12 and P17, and extensive retinal NV developed in 100% of the mice. Age-matched animals with the hyperoxia-exposed groups were maintained identically, except they were exposed to room air […], 79% N2] for the entire duration of the experiment. All animals were examined and sacrificed on the same days.
A group of hyperoxia-exposed animals [n=15] were injected intravitreally [into both eyes] at P12 and P15 with 3 μl of YC-1 [100 μM] [drug-treated group]. Another group of hyperoxiaexposed mice [n=15] were injected intravitreally [into both eyes] at P12 and P15 with 3 μl of DMSO [0.2% [v/v]] [mock-treated group]. Non-treated mice grown under ambient conditions, non-treated hyperoxia-exposed mice, DMSO-treated hyperoxia-exposed mice and YC-1-treated hyperoxia-exposed mice, were all examined at different critical time points for qualitative assessment of the retinal vasculature by fluorescein angiography.

R28 cells [2] = test: Western blot, R28; assay type: cell-based, rat; details: R28, hypoxia 48 hours, YC-1 25-100 μM
Experimental: Cells were placed in airtight chambers [BioSpherix, Redfield, N.Y.] and the O2 tension was maintained at 1.2% by using Pro-Ox Model 110 O2 regulator [BioSpherix, Redfield, N.Y.]. The chamber was purged with a gas mixture of 5.32% CO2, and 93.48% N2. […] Müller cells [rMC-1] and […] cells were seeded overnight in 6-well plates [10^5 cells/well]. Cells were treated with either YC-1 [25-100 μM] or DMSO [0.2% v/v] for 48 hours under normoxic or hypoxic environments. Reactions were terminated by addition of lysis buffer [Cell Signaling, Beverly, Mass.]. Protein content of the cell lysates was determined according to the Bradford method [Bio-Rad, Hercules, Calif.]. Aliquots [40 μg] of whole-cell lysates were separated on 7.5% SDS-PAGE, and electro-transferred onto polyvinylidene membranes [Amersham Pharmacia Biotech, Little Chalfont]. After blocking with 5% nonfat dry milk in TBS-T, the blots were incubated overnight with anti-iNOS [at 1:100] and anti-β-actin [internal control] antibodies. Then blots were washed 3×10 min washes in PBS/tween and subsequently incubated with peroxidase-conjugated anti-mouse IgG secondary antibody at 1:3000. The signals were obtained by enhanced chemiluminescence [Amersham Biosciences], and visualized by exposure to X-ray film. Upon completion of chemiluminescence, equal lane loading was checked by Ponceau S Solution [Sigma, St. Louis, Mo.]. X-ray films were scanned with a computer-assisted densitometer [model G-710; Bio-Rad] to quantify band optical density [Quantity One software; Bio-Rad].

[3] = R28, hypoxia 48 hours, YC-1 25-100 μM, vs DMSO-treated hypoxic cells
[4] = 100 μM YC-1, vs DMSO-treated retinas

For `OCc1ccc(-c2nn(Cc3ccccc3)c3ccccc23)o1` [YC-1, 3-(5′-hydroxymethyl-2′-furyl)-1-benzylindazole], the “PDGF-B mRNA level” value (R28 cells [1]; [3]) was “significant dose-dependent attenuations”, the “VEGF mRNA level” value (R28 cells [1]; [3]) was “significant dose-dependent attenuations” and the “iNOS mRNA level” value (R28 cells [1]; [3]) was “significant dose-dependent attenuations”. For the same compound, the “GFAP mRNA level” value (R28 cells [1]; R28, hypoxia, YC-1 25-100 μM, vs DMSO-treated hypoxic cells, normalized to β-actin) was “significant dose-dependent attenuations”, the HIF-1α message level (R28 cells [1]; R28, pre- vs post-YC-1 treatment) was “no differences” and the “PDGF-B message (mRNA) level in retina” value (ischemic retinas; [4]) was “significantly attenuated”. For the same compound, the “VEGF message (mRNA) level in retina” value (ischemic retinas; [4]) was “significantly attenuated”, the “iNOS message (mRNA) level in retina” value (ischemic retinas; [4]) was “significantly attenuated” and the “HIF-1α message (mRNA) level in retinal tissue” value (ischemic retinas; YC-1) was “did not have any influence”. The “GFAP message (mRNA) level in retina” value (ischemic retinas; YC-1 dual injection, vs DMSO, normalized to β-actin) was “significantly attenuated”, the “HIF-1 protein level (Western blot)” value (R28 cells [2]; vs DMSO-treated hypoxic cells) was “inhibited the hypoxia-induced upregulation” and the “PDGF-B protein level (Western blot)” value (R28 cells [2]; vs DMSO-treated hypoxic cells) was “inhibited the hypoxia-induced upregulation”. For the same compound, the “VEGF protein level (Western blot)” value (R28 cells [2]; vs DMSO-treated hypoxic cells) was “inhibited the hypoxia-induced upregulation”, the “iNOS protein level (Western blot)” value (R28 cells [2]; vs DMSO-treated hypoxic cells) was “inhibited the hypoxia-induced upregulation” and the “GFAP protein level (Western blot)” value (R28 cells [2]; vs non-treated hypoxic cells) was “inhibited the hypoxia-induced GFAP protein levels in a dose-dependent manner”.
